# Reference: US20260027068A1, “METHODS OF ADM[…]-KETAMINE” (Perception Neuroscience, Inc., priority 2022, published 2026)
# Columns and labels:
# [1] = test system: mouse model of morphine addiction; experiment: Mouse model of morphine addiction; type: in vivo; details: co-administered to mice
# [2] = in vivo; cited from earlier work
# healthy subjects = test system: healthy subjects
# Source text: To date, there has been one clinical trial that evaluated the safety of R(−)-ketamine.
# Pulse (vital signs) = experiment: Pulse (vital signs)
# Protocol: The Investigational Medicinal Product (IMP) R(−)-ketamine hydrochloride in sterile water for intravenous injection was investigated as an […] treatment of TRD. The International Union of Pure and Applied Chemistry (IUPAC) name is of the IMP is (2R)-2-(2-chlorophenyl)-2-(methylamino)cyclohexan-1-one. Subjects received the solution at either 30 mg or 60 mg dose, or a placebo. The IMP or placebo was administered on Day 1 as a single IV infusion via an electronic infusion pump over 40 minutes. The duration of study participation for each subject was up to 29 days including a screening period, a 3-day in-clinic visit, and 2 follow-up visits. 101 subjects were enrolled in approximately 20 study centers in the EU and the US.
# Tympanic or temporal temperature, heart rate, blood pressure (SBP/DBP), respiratory rate, and SpO2 were assessed. Blood pressure and pulse measurements will be assessed with a completely automated device while the subject is supine or semi-supine. Manual techniques will be used only if an automated device is not available. Blood pressure and pulse measurements should be preceded by at least 5 minutes of rest for the subject in a quiet setting without distractions (e.g., television, cell phones). An abnormal blood pressure value at screening may be repeated once after 5 minutes of relaxation to determine the subject's eligibility. Blood pressure was recorded using the same arm and position (supine or semi-supine) throughout the study, where possible. Vital signs (to be taken before blood collection for laboratory tests) consisted of 1 pulse and 3 blood pressure measurements (3 consecutive blood pressure readings will be recorded at intervals of at least 1 minute). The average of the 3 blood pressure readings was recorded in the CRF. A pulse oximeter was used to measure peripheral capillary oxygen saturation (SpO2) continuously from pre-dose until 4-hours post-dose. A pulse oximeter was clipped onto the finger or foot of the subject, and light will be sent through the finger or foot and measured on the other side.
# In these tables, baseline value is defined as the last non-missing value prior to study drug administration.
# rats = experiment: Alcohol tolerance; type: in vivo
# CYP2C19 = CYP2C19 (Homo sapiens, UniProt P33261); experiment: In vitro CYP inhibition
# CYP2C19, sequence (P33261 whole entry): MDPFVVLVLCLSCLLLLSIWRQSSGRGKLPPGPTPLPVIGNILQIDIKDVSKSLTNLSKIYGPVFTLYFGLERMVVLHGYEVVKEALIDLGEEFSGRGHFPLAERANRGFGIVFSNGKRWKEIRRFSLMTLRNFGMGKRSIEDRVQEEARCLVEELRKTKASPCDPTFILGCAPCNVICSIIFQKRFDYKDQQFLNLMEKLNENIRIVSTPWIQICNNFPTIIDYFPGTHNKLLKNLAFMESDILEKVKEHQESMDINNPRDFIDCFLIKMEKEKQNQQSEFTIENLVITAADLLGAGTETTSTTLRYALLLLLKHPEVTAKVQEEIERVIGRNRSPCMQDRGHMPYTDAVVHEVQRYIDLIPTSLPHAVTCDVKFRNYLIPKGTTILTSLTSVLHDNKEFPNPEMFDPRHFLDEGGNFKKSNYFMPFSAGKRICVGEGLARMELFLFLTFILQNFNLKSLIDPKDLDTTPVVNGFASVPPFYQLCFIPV
# rodents = details: 10 mg/kg; cited from earlier work
# CYP2B6 = target: T1, CYP2B6 (Homo sapiens, UniProt P20813); details: in vitro
# T1 sequence (P20813 1-491): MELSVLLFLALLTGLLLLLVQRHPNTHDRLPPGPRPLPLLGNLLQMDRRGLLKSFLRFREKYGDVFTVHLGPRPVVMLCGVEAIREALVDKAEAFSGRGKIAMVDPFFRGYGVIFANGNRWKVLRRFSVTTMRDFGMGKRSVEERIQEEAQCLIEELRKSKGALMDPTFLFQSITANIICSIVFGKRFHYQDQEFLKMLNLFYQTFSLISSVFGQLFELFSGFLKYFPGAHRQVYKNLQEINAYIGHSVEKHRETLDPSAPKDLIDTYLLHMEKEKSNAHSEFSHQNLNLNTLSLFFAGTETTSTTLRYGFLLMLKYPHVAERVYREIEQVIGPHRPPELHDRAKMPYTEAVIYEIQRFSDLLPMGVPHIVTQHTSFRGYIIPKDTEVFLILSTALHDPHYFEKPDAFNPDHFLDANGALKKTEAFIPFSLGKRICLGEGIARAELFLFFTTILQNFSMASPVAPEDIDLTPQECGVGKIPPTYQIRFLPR
# [3] = test system: cytochrome P450 (CYP) isoforms; experiment: In vitro drug metabolism: CYP isoforms involved
structure (smiles),measurement,setting,value
"CN[C@@]1(c2ccccc2Cl)CCCCC1=O.Cl [R(−)-ketamine, (2R)-2-(2-chlorophenyl)-2-(methylamino)cyclohexan-1-one]",Effect on the addictive properties of morphine,[1],significantly attenuated the addictive properties of morphine
same,"Side effects (hyperlocomotion, prepulse inhibition deficit, drug dependence)",[2],did not
same,Safety findings compared with 100 mg or 150 mg doses,healthy subjects; 30 mg and 60 mg doses,"fewer transient elevations in mean systemic blood pressure, less sedation, fewer psychological or psychotic and dissociative effects, and fewer episodes of altered consciousness"
same,Dose level most similar to 15 mg S(+)-ketamine in terms of safety profile,healthy subjects; healthy subjects,60 mg
same,Doses with acceptable safety profiles,"healthy subjects; single 40-minute IV infusions, healthy subjects",≤ 150 mg
same,Pulse: Mean,"Pulse (vital signs); 30 mg, Day 1, 15 minutes",69.4 beats/minute
same,Pulse: Median,"Pulse (vital signs); 30 mg, Day 1, 15 minutes",70.0 beats/minute
same,Pulse: Mean,"Pulse (vital signs); 30 mg, Day 1, 40 minutes",69.9 beats/minute
same,Pulse: Median,"Pulse (vital signs); 30 mg, Day 1, 40 minutes",70.0 beats/minute
same,Pulse: Mean,"Pulse (vital signs); 30 mg, Day 1, 60 minutes",67.2 beats/minute
same,Pulse: Median,"Pulse (vital signs); 30 mg, Day 1, 60 minutes",68.5 beats/minute
same,Pulse: Mean,"Pulse (vital signs); 30 mg, Day 1, 2 hours",70.7 beats/minute
same,Pulse: Median,"Pulse (vital signs); 30 mg, Day 1, 2 hours",70.0 beats/minute
same,Pulse: Mean,"Pulse (vital signs); 30 mg, Day 1, 4 hours",72.1 beats/minute
same,Pulse: Median,"Pulse (vital signs); 30 mg, Day 1, 4 hours",72.0 beats/minute
same,Pulse: Mean,"Pulse (vital signs); 30 mg, Day 1, 6 hours",70.7 beats/minute
same,Pulse: Median,"Pulse (vital signs); 30 mg, Day 1, 6 hours",72.0 beats/minute
same,Pulse: Mean,"Pulse (vital signs); 30 mg, Day 2 - Discharge",73.5 beats/minute
same,Pulse: Median,"Pulse (vital signs); 30 mg, Day 2 - Discharge",75.0 beats/minute
same,Pulse: Mean,"Pulse (vital signs); 30 mg, Day 8",74.1 beats/minute
same,Pulse: Median,"Pulse (vital signs); 30 mg, Day 8",74.0 beats/minute
same,Pulse: Mean,"Pulse (vital signs); 30 mg, Day 15",74.4 beats/minute
same,Pulse: Median,"Pulse (vital signs); 30 mg, Day 15",75.0 beats/minute
same,"Pulse: Change from Baseline, Mean","Pulse (vital signs); 30 mg, to Day 1, 15 minutes",−0.4 beats/minute
same,"Pulse: Change from Baseline, Median","Pulse (vital signs); 30 mg, to Day 1, 15 minutes",0.0 beats/minute
same,"Pulse: Change from Baseline, Mean","Pulse (vital signs); 30 mg, to Day 1, 40 minutes",−0.6 beats/minute
same,"Pulse: Change from Baseline, Median","Pulse (vital signs); 30 mg, to Day 1, 40 minutes",−1.0 beats/minute
same,"Pulse: Change from Baseline, Mean","Pulse (vital signs); 30 mg, to Day 1, 60 minutes",−2.5 beats/minute
same,"Pulse: Change from Baseline, Median","Pulse (vital signs); 30 mg, to Day 1, 60 minutes",−3.5 beats/minute
same,"Pulse: Change from Baseline, Mean","Pulse (vital signs); 30 mg, to Day 1, 2 hours",0.2 beats/minute
same,"Pulse: Change from Baseline, Median","Pulse (vital signs); 30 mg, to Day 1, 2 hours",−2.0 beats/minute
same,"Pulse: Change from Baseline, Mean","Pulse (vital signs); 30 mg, to Day 1, 4 hours",1.6 beats/minute
same,"Pulse: Change from Baseline, Median","Pulse (vital signs); 30 mg, to Day 1, 4 hours",2.0 beats/minute
same,"Pulse: Change from Baseline, Mean","Pulse (vital signs); 30 mg, to Day 1, 6 hours",0.2 beats/minute
same,"Pulse: Change from Baseline, Median","Pulse (vital signs); 30 mg, to Day 1, 6 hours",1.0 beats/minute
same,"Pulse: Change from Baseline, Mean","Pulse (vital signs); 30 mg, to Day 2 - Discharge",3.1 beats/minute
same,"Pulse: Change from Baseline, Median","Pulse (vital signs); 30 mg, to Day 2 - Discharge",2.0 beats/minute
same,"Pulse: Change from Baseline, Mean","Pulse (vital signs); 30 mg, to Day 8",2.1 beats/minute
same,"Pulse: Change from Baseline, Median","Pulse (vital signs); 30 mg, to Day 8",1.0 beats/minute
same,"Pulse: Change from Baseline, Mean","Pulse (vital signs); 30 mg, to Day 15",3.3 beats/minute
same,"Pulse: Change from Baseline, Median","Pulse (vital signs); 30 mg, to Day 15",2.0 beats/minute
same,Pulse: Mean,"Pulse (vital signs); 60 mg, Day 1, 15 minutes",67.3 beats/minute
same,Pulse: Median,"Pulse (vital signs); 60 mg, Day 1, 15 minutes",66.5 beats/minute
same,Pulse: Mean,"Pulse (vital signs); 60 mg, Day 1, 40 minutes",68.0 beats/minute
same,Pulse: Median,"Pulse (vital signs); 60 mg, Day 1, 40 minutes",68.0 beats/minute
same,Pulse: Mean,"Pulse (vital signs); 60 mg, Day 1, 60 minutes",64.9 beats/minute
same,Pulse: Median,"Pulse (vital signs); 60 mg, Day 1, 60 minutes",65.0 beats/minute
same,Pulse: Mean,"Pulse (vital signs); 60 mg, Day 1, 2 hours",68.2 beats/minute
same,Pulse: Median,"Pulse (vital signs); 60 mg, Day 1, 2 hours",70.0 beats/minute
same,Pulse: Mean,"Pulse (vital signs); 60 mg, Day 1, 4 hours",70.7 beats/minute
same,Pulse: Median,"Pulse (vital signs); 60 mg, Day 1, 4 hours",72.0 beats/minute
same,Pulse: Mean,"Pulse (vital signs); 60 mg, Day 1, 6 hours",72.6 beats/minute
same,Pulse: Median,"Pulse (vital signs); 60 mg, Day 1, 6 hours",71.0 beats/minute
same,Pulse: Mean,"Pulse (vital signs); 60 mg, Day 2 - Discharge",72.2 beats/minute
same,Pulse: Median,"Pulse (vital signs); 60 mg, Day 2 - Discharge",70.0 beats/minute
same,Pulse: Mean,"Pulse (vital signs); 60 mg, Day 8",73.3 beats/minute
same,Pulse: Median,"Pulse (vital signs); 60 mg, Day 8",70.0 beats/minute
same,Pulse: Mean,"Pulse (vital signs); 60 mg, Day 15",71.0 beats/minute
same,Pulse: Median,"Pulse (vital signs); 60 mg, Day 15",69.0 beats/minute
same,"Pulse: Change from Baseline, Mean","Pulse (vital signs); 60 mg, to Day 1, 15 minutes",0.0 beats/minute
same,"Pulse: Change from Baseline, Median","Pulse (vital signs); 60 mg, to Day 1, 15 minutes",0.5 beats/minute
same,"Pulse: Change from Baseline, Mean","Pulse (vital signs); 60 mg, to Day 1, 40 minutes",−4.7 beats/minute
same,"Pulse: Change from Baseline, Median","Pulse (vital signs); 60 mg, to Day 1, 40 minutes",−5.0 beats/minute
same,"Pulse: Change from Baseline, Mean","Pulse (vital signs); 60 mg, to Day 1, 60 minutes",−2.3 beats/minute
same,"Pulse: Change from Baseline, Median","Pulse (vital signs); 60 mg, to Day 1, 60 minutes",−1.0 beats/minute
same,"Pulse: Change from Baseline, Mean","Pulse (vital signs); 60 mg, to Day 1, 2 hours",−4.5 beats/minute
same,"Pulse: Change from Baseline, Median","Pulse (vital signs); 60 mg, to Day 1, 2 hours",−5.0 beats/minute
same,"Pulse: Change from Baseline, Mean","Pulse (vital signs); 60 mg, to Day 1, 4 hours",−2.0 beats/minute
same,"Pulse: Change from Baseline, Median","Pulse (vital signs); 60 mg, to Day 1, 4 hours",−1.0 beats/minute
same,"Pulse: Change from Baseline, Mean","Pulse (vital signs); 60 mg, to Day 1, 6 hours",−0.3 beats/minute
same,"Pulse: Change from Baseline, Median","Pulse (vital signs); 60 mg, to Day 1, 6 hours",0.5 beats/minute
same,"Pulse: Change from Baseline, Mean","Pulse (vital signs); 60 mg, to Day 2 - Discharge",−0.6 beats/minute
same,"Pulse: Change from Baseline, Median","Pulse (vital signs); 60 mg, to Day 2 - Discharge",−1.0 beats/minute
same,"Pulse: Change from Baseline, Mean","Pulse (vital signs); 60 mg, to Day 8",0.6 beats/minute
same,"Pulse: Change from Baseline, Median","Pulse (vital signs); 60 mg, to Day 8",0.0 beats/minute
same,"Pulse: Change from Baseline, Mean","Pulse (vital signs); 60 mg, to Day 15",−1.7 beats/minute
same,"Pulse: Change from Baseline, Median","Pulse (vital signs); 60 mg, to Day 15",0.0 beats/minute
same,Effect on alcohol tolerance,rats,mitigated the effects of alcohol tolerance
same,CYP2C19 inhibition,CYP2C19,inhibitor
same,Antidepressant effect compared with S(+)-ketamine,rodents,longer acting and more potent effects than S(+)-ketamine
same,CYP2B6 inhibition,CYP2B6,inhibitor
same,CYP isoforms involved in the metabolism,[3],"primarily CYP2B6, CYP3A4/5, and CYP2C19"
